Experiments:
Type in all cases: biochemical
Human ALDH3A1 [1] = target: T1, Human ALDH3A1 (Homo sapiens, UniProt P30838); assay: ALDH3A1 inhibition, IC50, Ki and type of inhibition; conditions: for IC50: 31 μM 4-NBA as substrate
T1 construct: made in house
T1 sequence (P30838 1-453): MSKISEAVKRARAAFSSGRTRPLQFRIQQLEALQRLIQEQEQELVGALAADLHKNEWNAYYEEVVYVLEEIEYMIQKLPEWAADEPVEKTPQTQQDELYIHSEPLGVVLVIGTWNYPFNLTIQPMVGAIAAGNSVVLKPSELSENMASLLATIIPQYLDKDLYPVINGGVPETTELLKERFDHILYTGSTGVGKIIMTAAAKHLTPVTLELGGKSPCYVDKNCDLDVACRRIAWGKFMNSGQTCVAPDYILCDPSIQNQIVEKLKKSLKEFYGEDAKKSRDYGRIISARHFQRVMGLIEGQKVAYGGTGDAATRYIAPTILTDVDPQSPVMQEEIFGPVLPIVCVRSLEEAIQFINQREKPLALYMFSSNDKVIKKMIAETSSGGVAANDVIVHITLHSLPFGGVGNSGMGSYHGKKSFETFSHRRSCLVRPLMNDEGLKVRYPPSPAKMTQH

Human ALDH1A1 [2] = target: T2, Human ALDH1A1 (Homo sapiens, UniProt P00352); assay: DEAB analogues as substrates of ALDH1A1; conditions: 10 μM compound as substrate, relative to activity with 10 μM hexanal (Figure S2)
T2 construct: made in house
T2 sequence (P00352 1-501): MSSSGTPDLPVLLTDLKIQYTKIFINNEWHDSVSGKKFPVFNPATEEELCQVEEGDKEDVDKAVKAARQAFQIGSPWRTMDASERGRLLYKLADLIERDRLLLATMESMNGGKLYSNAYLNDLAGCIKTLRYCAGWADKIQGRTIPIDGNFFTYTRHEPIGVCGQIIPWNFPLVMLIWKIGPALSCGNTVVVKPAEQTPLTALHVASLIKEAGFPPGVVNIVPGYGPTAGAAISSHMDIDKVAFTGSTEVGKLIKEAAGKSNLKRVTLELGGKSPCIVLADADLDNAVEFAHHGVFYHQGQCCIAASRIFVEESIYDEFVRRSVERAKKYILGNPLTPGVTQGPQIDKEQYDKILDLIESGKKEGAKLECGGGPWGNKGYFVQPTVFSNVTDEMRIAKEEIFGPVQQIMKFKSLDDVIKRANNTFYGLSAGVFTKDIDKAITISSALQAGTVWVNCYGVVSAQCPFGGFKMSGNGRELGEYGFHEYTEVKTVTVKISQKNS
Description: (§1) Human ALDH1A1, ALDH1A3, and ALDH3A1 were cloned and recombinantly expressed from the pET-30 Xa/LIC vector. Protein purification was achieved by affinity chromatography on a nickel-charged chelating Sepharose Fast Flow 5-mL column (His Trap column, Cytiva), which specifically binds the protein due to its N-terminal (His)6 tag, using an ÄKTA FPLC system (Cytiva), as previously described.[55] Enzymes including the His tag were stored at −80 °C in 20 mM Tris/HCl and 0.5 M NaCl, pH 8.0, until use. Reaction buffers were as follows: ALDH1A1 was assayed in 50 mM HEPES, 0.5 mM EDTA, and 0.5 mM DTT, pH 8.0; ALDH1A3 was assayed in 50 mM HEPES, 30 mM MgCl2, and 5 mM DTT, pH 8.0; and ALDH3A1 was assayed in 50 mM Tris–HCl and 5 mM DTT, pH 8.0. Activity under standard conditions was measured fluorimetrically at 25 °C using a Cary Eclipse (Varian) fluorimeter to follow the purification procedure and to check the enzyme concentration before each kinetic experiment. The fluorescence of NADH was characterized at 460 nm with excitation at 340 nm, and 5 μM NAD(P)H was added as an internal standard to obtain the absolute reaction rates.[55] Standard activity was measured at saturating concentrations of substrate using 30 μM hexanal (ALDH1A1), 250 μM hexanal (ALDH1A3), or 250 μM 4-NBA (ALDH3A1). NAD^+ was 500 μM for ALDH1A1 and ALDH1A3, and NADP^+ was 1 mM for ALDH3A1.
(§2) According to their structure with a carbonyl group, compounds were tested for their substrate properties against ALDH1A1, ALDH1A3, and ALDH3A1. […] Results are expressed as the percentage of activity at 10 μM versus the activity at 10 μM of their standard substrate (hexanal or 4-NBA). Values are expressed as the mean ± SE.

Human ALDH3A1 [3] = target: T1, Human ALDH3A1; assay: DEAB analogues as substrates of ALDH3A1 (substrate activity and kinetics); conditions: for ALDH3A1 substrate activity: 10 μM compound as substrate, relative to activity with 10 μM 4-NBA (Figure S2)
Description: as §1, §2
To calculate the Km value of compound 18 as a substrate for ALDH3A1, several concentrations of compound 18 were used. Experimental values were fitted to the adaptation of the Michaelis–Menten equation for substrate inhibition [drawing 1] and shown as the mean ± SE.

Human ALDH1A1 [4] = target: T2, Human ALDH1A1; assay: ALDH1A1 inhibition, IC50 determination
Description: as §1
In order to determine the IC50 values, reaction rates were determined at various concentrations of inhibitor at a fixed concentration of substrate. As substrates for ALDH1A1, ALDH1A3, and ALDH3A1, 5 μM hexanal, 6 μM hexanal, and 31 μM 4-NBA, respectively, were used. The IC50 values were calculated by nonlinear fitting of the obtained data to a sigmoidal plot using GraFit 5.0 (Erithacus software), with the following 4-parameter equation [drawing 2] , where y is the specific activity, x is the inhibitor concentration, background is the minimum y value, range is the fitted uninhibited value minus the background, and s is the slope factor. Values are expressed as the mean ± SE.

Row | Structure (SMILES) | IC50 (Human ALDH3A1 [1]; mean ± SE) | type of inhibition ALDH3A1 (Human ALDH3A1 [1]; 4-NBA as substrate) | Ki (Human ALDH3A1 [1]; 4-NBA as substrate, fit to competitive inhibition equation, mean ± SE) | IC50 with versus without preincubation with the cofactor NADP+ (Human ALDH3A1 [1]; 5-min preincubation) | ALDH1A1 substrate activity (Human ALDH1A1 [2]) | ALDH3A1 substrate activity (Human ALDH3A1 [3]) | Ksi as ALDH3A1 substrate (Human ALDH3A1 [3]; fit to substrate inhibition equation, mean ± SE) | Km (Human ALDH3A1 [3]; mean ± SE) | kcat as ALDH3A1 substrate (Human ALDH3A1 [3]; mean ± SE) | IC50 (Human ALDH1A1 [4]; 5 μM hexanal as substrate, mean ± SE) | fold less effective than DEAB in inhibiting ALDH1A1 (Human ALDH1A1 [4]; ratio of IC50 values vs DEAB)
1 | CCCN(CCC)c1ccc(C=O)cc1[N+](=O)[O-] [Compound 18, 4-(Dipropylamino)-3-Nitrobenzaldehyde] | 1.61 ± 0.17 µM | competitive | 0.3 ± 0.06 µM | no differences were observed | 17% | 4.21% | 113 ± 25 µM | 2.82 ± 0.35 µM | 13.4 ± 0.7 min^–1 |  | 
2 | CCCN(CCC)c1ccc(C=O)cc1Br [Compound 14, 3-Bromo-4-(dipropylamino)benzaldehyde] | 8 ± 1.56 µM |  |  |  |  | lower than 5% |  |  |  | 7.08 ± 0.7 µM | approximately 15 fold
